The test system of the experiment is corn seeds. Put plainly: Corn seed germination experiment (seed soaking method, NYT 2061.1-2011). The note with it: seed soaking. It is filed as in vivo. From the text: Test Method: Ministerial Standard NYT 2061.1-2011, Seed Soaking Method
Test samples: crude chlorin, and dihydroporphin monomers including chlorin fG, chlorin e6, pheophorbide, pyropheophorbide, chlorin e4, purpurin-7, purpurin-18, chlorin p6, 15-formyl rhodochlorin, 15-oxymethyl rhodochlorin, 15-oxymethyl rhodochlorin lactone A, 15-hydroxymethyl rhodochlorin, and 15-hydroxymethyl rhodochlorin lactone B, and pure water and iron chlorin e6 (China Pesticide Registration Certificate Number: PD20190031) were used as blank and positive control.
10 mg of each sample was weighed and put into a 10 ml volumetric flask, dissolved with DMSO, and diluted to volume after being dissolved completely. 1 ml of each diluted monomer solution was put into a 50-1000 ml volumetric flask, added with water, blended and diluted to volume so as to prepare a solution with a concentration of 2 ppm, 0.2 ppm, or 0.02 ppm.
The method was substantially the same as that in Example 2, except that the test samples were monomer chlorin e6 and control monomer chlorin e6 iron (III), both at a concentration of 0.02 ppm and the test seeds were corn, soybean, rice and wheat seeds. The preparation method of the control monomer was conducted by referring to CN102273467B.

Turning to 15-oxymethyl rhodochlorin, the Germination rate % was 56% (0.02 ppm sample solution), 52% (0.2 ppm sample solution) and 52% (2 ppm sample solution).
With `C=Cc1c(C)c2cc3nc(c(C=O)c4[nH]c(cc5nc(cc1[nH]2)C(C)=C5CC)c(C)c4C(=O)O)[C@@H](CCC(=O)O)[C@@H]3C` [15-formyl rhodochlorin], the Germination rate % (0.02 ppm sample solution) was found to be 52%, the Germination rate % (0.2 ppm sample solution) is on record as 51% and the Germination rate % (2 ppm sample solution) is 54%.
Regarding `C=Cc1c(C)c2cc3nc(c(CO)c4[nH]c(cc5nc(cc1[nH]2)C(C)=C5CC)c(C)c4C(=O)O)C(CCC(=O)O)C3C` (stereo not drawn) [15-hydroxymethyl rhodochlorin], the Germination rate % is 58% (0.02 ppm sample solution), 59% (0.2 ppm sample solution) and 55% (2 ppm sample solution).
In the case of `C=Cc1c(C)c2cc3nc(c(C(=O)O)c4[nH]c(cc5nc(cc1[nH]2)C(C)=C5CC)c(C)c4C(=O)O)[C@@H](CCC(=O)O)[C@@H]3C` [Chlorin p6, chlorin p6], the Germination rate % reads like this: (0.02 ppm sample solution) 49%; (0.2 ppm sample solution) 55%; (2 ppm sample solution) 52%.
Taken in the same sequence, the figures for `C=Cc1c(C)c2cc3nc(c4c5[nH]c(cc6nc(cc1[nH]2)C(C)=C6CC)c(C)c5C(=O)[C@@H]4C(=O)OC)[C@@H](CCC(=O)O)[C@@H]3C` [Pheophorbide, pheophorbide] were 57%, 55% and 56%.
Taken in the same sequence, the figures for purpurin-7 were 56%, 57% and 53%.

Source of the values: US12279618B2, “Use of dihydroporphin derived from chlorophyll as plant growth regulator” (Anqing Better Bioengineering Co., Ltd, priority 2019, dated 2025).
